Each block holds one molecule with its values, some of them ahead of it.
Experiments:
[1] = tested on: RhoBAST G35A (RNA, aptamer) GGAACCTCCGCGAAAGCGGUGAAGAAGAGGCGCAAGGUUAACCGCCUCAGGUUCC; assay: ITC; details: K+ 100 mM; Mg2+ concentration not given; 20 mM Tris-HCl pH 7.5, 25 °C; 100 μM TMR-DN titrated into 10 μM RNA
[2] = tested on: RhoBAST L2-U1 (L2'-U1; RhoBAST-U1A Loop) (RNA, aptamer) GGAACCUCCGCCCAUUGCACUCCGGGCGGUGAAGGAGAGGCGCAAGGUUAACCGCCUCAGGUUCC; assay: X-ray crystal structure, 2.75 Å; details: Mg2+; co-crystal with U1A protein
[3] = tested on: RhoBAST G37A (RNA, aptamer) GGAACCUCCGCGAAAGCGGUGAAGGAAAGGCGCAAGGUUAACCGCCUCAGGUUCC; assay: ITC; details: K+ 100 mM; Mg2+ concentration not given; 20 mM Tris-HCl pH 7.5, 25 °C; affinity not prominently reduced
[4] = tested on: RhoBAST G31C (RNA, aptamer) GGAACCTCCGCGAAAGCGGUCAAGGAGAGGCGCAAGGUUAACCGCCUCAGGUUCC; assay: ITC; details: K+ 100 mM; Mg2+ concentration not given; 20 mM Tris-HCl pH 7.5, 25 °C; 100 μM TMR-DN titrated into 10 μM RNA
[5] = tested on: RhoBAST G47A (RNA, aptamer) GGAACCUCCGCGAAAGCGGUGAAGGAGAGGCGCAAGAUUAACCGCCUCAGGUUCC; assay: ITC; details: K+ 100 mM; Mg2+ concentration not given; 20 mM Tris-HCl pH 7.5, 25 °C; 26.8 x K of WT
[6] = tested on: RhoBAST G47C (RNA, aptamer) GGAACCUCCGCGAAAGCGGUGAAGGAGAGGCGCAAGCUUAACCGCCUCAGGUUCC; assay: ITC; details: K+ 100 mM; Mg2+ concentration not given; 20 mM Tris-HCl pH 7.5, 25 °C; 100 μM TMR-DN titrated into 10 μM RNA
[7] = tested on: RhoBAST C52G (RNA, aptamer) GGAACCTCCGCGAAAGCGGUGAAGGAGAGGCGCAAGGUUAAGCGCCUCAGGUUCC; assay: ITC; details: K+ 100 mM; Mg2+ concentration not given; 20 mM Tris-HCl pH 7.5, 25 °C; 100 μM TMR-DN titrated into 10 μM RNA
[8] = tested on: RhoBAST WT (RNA, aptamer) GGAACCUCCGCGAAAGCGGUGAAGGAGAGGCGCAAGGUUAACCGCCUCAGGUUCC; assay: ITC; details: K+ 100 mM, Mg2+ 0.5 mM; 20 mM Tris-HCl pH 7.5, 25 °C; no binding observed without Mg2+
[9] = tested on: RhoBAST G35C/C52G (RNA, aptamer) GGAACCTCCGCGAAAGCGGUGAAGCAGAGGCGCAAGGUUAAGCGCCUCAGGUUCC; assay: ITC; details: K+ 100 mM; Mg2+ concentration not given; 20 mM Tris-HCl pH 7.5, 25 °C; 100 μM TMR-DN titrated into 10 μM RNA
[10] = tested on: RhoBAST A51U (RNA, aptamer) GGAACCUCCGCGAAAGCGGUGAAGGAGAGGCGCAAGGUUAUCCGCCUCAGGUUCC; assay: ITC; details: K+ 100 mM; Mg2+ concentration not given; 20 mM Tris-HCl pH 7.5, 25 °C, nM inferred from ΔG
[11] = tested on: RhoBAST C52A (RNA, aptamer) GGAACCTCCGCGAAAGCGGUGAAGGAGAGGCGCAAGGUUAAACGCCUCAGGUUCC; assay: ITC; details: K+ 100 mM; Mg2+ concentration not given; 20 mM Tris-HCl pH 7.5, 25 °C; 46 x K of WT
[12] = tested on: RhoBAST C8G (RNA, aptamer) GGAACCUGCGCGAAAGCGGUGAAGGAGAGGCGCAAGGUUAACCGCCUCAGGUUCC; assay: ITC; details: K+ 100 mM; Mg2+ concentration not given; 20 mM Tris-HCl pH 7.5, 25 °C; affinity not prominently reduced
[13] = tested on: RhoBAST G46A (RNA, aptamer) GGAACCUCCGCGAAAGCGGUGAAGGAGAGGCGCAAAGUUAACCGCCUCAGGUUCC; assay: ITC; details: K+ 100 mM; Mg2+ concentration not given; 20 mM Tris-HCl pH 7.5, 25 °C; 6.2 x K of WT
[14] = tested on: RhoBAST A36U (RNA, aptamer) GGAACCUCCGCGAAAGCGGUGAAGGUGAGGCGCAAGGUUAACCGCCUCAGGUUCC; assay: ITC; details: K+ 100 mM; Mg2+ concentration not given; 20 mM Tris-HCl pH 7.5, 25 °C; 3.5 x K of WT
[15] = tested on: RhoBAST U30C/A36C (RNA, aptamer) GGAACCUCCGCGAAAGCGGCGAAGGCGAGGCGCAAGGUUAACCGCCUCAGGUUCC; assay: ITC; details: K+ 100 mM; Mg2+ concentration not given; 20 mM Tris-HCl pH 7.5, 25 °C; 28 x K of WT
[16] = tested on: RhoBAST A33C (RNA, aptamer) GGAACCUCCGCGAAAGCGGUGACGGAGAGGCGCAAGGUUAACCGCCUCAGGUUCC; assay: ITC; details: K+ 100 mM; Mg2+ concentration not given; 20 mM Tris-HCl pH 7.5, 25 °C; similar to WT
[17] = tested on: RhoBAST A50U (RNA, aptamer) GGAACCUCCGCGAAAGCGGUGAAGGAGAGGCGCAAGGUUUACCGCCUCAGGUUCC; assay: ITC; details: K+ 100 mM; Mg2+ concentration not given; 20 mM Tris-HCl pH 7.5, 25 °C, nM inferred from ΔG
[18] = tested on: RhoBAST U48C (RNA, aptamer) GGAACCUCCGCGAAAGCGGUGAAGGAGAGGCGCAAGGCUAACCGCCUCAGGUUCC; assay: ITC; details: K+ 100 mM; Mg2+ concentration not given; 20 mM Tris-HCl pH 7.5, 25 °C; 1.3 x K of WT
[19] = tested on: RhoBAST A33G (RNA, aptamer) GGAACCUCCGCGAAAGCGGUGAGGGAGAGGCGCAAGGUUAACCGCCUCAGGUUCC; assay: ITC; details: K+ 100 mM; Mg2+ concentration not given; 20 mM Tris-HCl pH 7.5, 25 °C; similar to WT
[20] = tested on: RhoBAST A36C (RNA, aptamer) GGAACCUCCGCGAAAGCGGUGAAGGCGAGGCGCAAGGUUAACCGCCUCAGGUUCC; assay: ITC; details: K+ 100 mM; Mg2+ concentration not given; 20 mM Tris-HCl pH 7.5, 25 °C; 40 x K of WT
[21] = tested on: RhoBAST L3'-U1 (RNA, aptamer) GGAACCUCCGCGAAAGCGGUGAAGGAGAGGCCAUUGCACUCCGGCCUCAGGUUCC; assay: binding assay in Supplementary Fig. 1b
[22] = tested on: RhoBAST L2-U1 (L2'-U1; RhoBAST-U1A Loop) (RNA, aptamer) GGAACCUCCGCCCAUUGCACUCCGGGCGGUGAAGGAGAGGCGCAAGGUUAACCGCCUCAGGUUCC; assay: binding assay in Supplementary Fig. 1b; details: K+ 100 mM, Mg2+ 10 mM assumed; 20 mM Tris-HCl pH 7.5, 25 °C, nM inferred from ΔG high affinity as wild type
[23] = tested on: RhoBAST ∆U7 (RNA, aptamer) GGAACCCCGCGAAAGCGGUGAAGGAGAGGCGCAAGGUUAACCGCCUCAGGUUCC; assay: ITC; details: K+ 100 mM; Mg2+ concentration not given; 20 mM Tris-HCl pH 7.5, 25 °C; affinity not prominently reduced
[24] = tested on: RhoBAST U49A (RNA, aptamer) GGAACCUCCGCGAAAGCGGUGAAGGAGAGGCGCAAGGUAAACCGCCUCAGGUUCC; assay: ITC; details: K+ 100 mM; Mg2+ concentration not given; 20 mM Tris-HCl pH 7.5, 25 °C; 100 x K of WT
[25] = target: U1A (U1 RNA-binding protein, co-crystallization chaperone) (human, UniProt P09012 1-102); assay: ITC; TMR-DN presence in this assay not stated; ITC: 20 mM Tris-HCl pH 7.5, 100 mM KCl, 0-10 mM MgCl2, 25 C (described for RNA-fluorophore titrations; U1A conditions not separately given); details: protein: recombinant; four-way junction; U1A hairpin loop
Chain of U1A (U1 RNA-binding protein, co-crystallization chaperone) (P09012 1-102): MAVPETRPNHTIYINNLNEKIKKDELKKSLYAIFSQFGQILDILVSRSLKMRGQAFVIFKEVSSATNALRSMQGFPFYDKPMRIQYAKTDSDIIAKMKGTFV

- binding [1]: no
- binding [2]: yes
- KD [3]: 0.083 µM
- binding [4]: no
- KD [5]: 0.931 µM
- binding [6]: no
- binding [7]: no
- KD [8]: ~ 24 nM
- binding [9]: no
- KD [10]: 1060 nM
- KD [11]: 1.6 µM
- KD [12]: 0.047 µM
- KD [13]: 0.217 µM
- KD [14]: 0.122 µM
- KD [15]: 0.976 µM
- KD [16]: 0.0655 µM
- KD [17]: 3590 nM
- KD [18]: 0.0455 µM
- KD [19]: 0.0351 µM
- KD [20]: 1.4 µM
- binding [21]: no
- KD [22]: 35.5 ± 5.69 nM
- KD [23]: 0.0569 µM
- KD [24]: 3.51 µM
Molecule: CN(C)c1ccc2c(-c3ccc(C(=O)NCCOCCOCCNc4ccc([N+](=O)[O-])cc4[N+](=O)[O-])cc3C(=O)[O-])c3ccc(=[N+](C)C)cc-3oc2c1

B1: RhoBAST-U1A Loop (L2'-U1) (structured_RNA)
RNA: GGAACCUCCGCCCAUUGCACUCCGGGCGGUGAAGGAGAGGCGCAAGGUUAACCGCCUCAGGUUCC
- Kd [25]: 0.00794 ± 0.00174 µM
